# Assay results as given in patent US9497975B2, “Broad spectrum natural preservative composition” (The Trustees of Columbia University in the City of New York, priority 2011, dated 2016).
# Tests used:
# A. niger = experiment: Efficacy of BA, THC and essential oils in anionic emulsion against A. niger, Example 2; format: cell-based, Aspergillus niger; settings: essential oil 0.3% w/w alone or with BA 0.5% w/w and THC 0.05% w/w, incubation 48 hours, average of nine samples
# Description: 0.9 gm aliquots of preservative containing emulsions were dispensed into several culture tubes. These were divided into various groups and inoculated with 0.1 ml of the test organism (bacteria, Candida albicans (10^8 cfu/ml) or Aspergillus niger (10^7 cfu/ml). After mixing, the tubes were incubated for 48 hours for bacteria t days for either C. albicans or A. niger. The cultures were then diluted serially with Drug Neutralizing Fluid (DNF) and 0.5 ml aliquots were plated on TSA and incubated for 24-48 hours (bacteria and C. albicans were incubated at 37° C. and A. niger at 30° C.). In the control group, the emulsion base without the preservatives was inoculated with each organism and processed similarly.
# Various essential oils were used along with BA and THC and incorporated in anionic emulsion and tested against A. niger.
# Candida albicans = experiment: Antimicrobial activity of test formulations in cationic or anionic emulsion, Example 3; format: cell-based; settings: incubated 7 days
# Description: (§1) A stock solution was prepared containing the active ingredients and was then diluted in either a cationic or anionic test formulation, where the cationic formulation tested was Formulation A described in Example 1 and the anionic formulation tested was Formulation B described in Example 1: […]
# (§2) Test formulations comprising the synthetic preservative methylparaben, at a concentration of 0.3% w/w, was used as a positive control.
# (§3) The following method of testing for antimicrobial activity was used. 25 gms of emulsion containing 1-1.2% of various preservative was prepared. 0.9 gm aliquots of preservative containing emulsions were dispensed into several culture tubes. These were divided into various groups and inoculated with 0.1 ml of the test organism (bacteria, Candida albicans (10^8 cfu/ml) or Aspergillus niger (10^7 cfu/ml)). After mixing, the tubes were incubated for 48 hours for bacteria and for 7 days days for either C. albicans or A. niger. The cultures were then diluted serially with Drug Neutralizing Fluid (DNF) and 0.5 ml aliquots were plated on TSA and incubated for 24-48 hours (bacteria and C. albicans were incubated at 37° C. and A. niger at 30° C.). In the control group, the emulsion base without the preservatives was inoculated with each organism and processed similarly. The log 10 reduction in colony counts of the test group from the colony counts of control group was determined.
# Aspergillus niger = experiment: as above; format: cell-based; settings: incubated 7 days
# Description: as §1, §2, §3
# P. aeruginosa = experiment: as above; format: cell-based, Pseudomonas aeruginosa; settings: incubated 48 hours
# Description: as §1, §2
# as §3, with “In the control group, the emulsion base without the preservatives was inoculated with each organism and processed similarly.” left out
# S. aureus = experiment: as above; format: cell-based, Staphylococcus aureus; settings: incubated 48 hours
# Description: as §1, §2
# as §3, with “In the control group, the emulsion base without the preservatives was inoculated with each organism and processed similarly.” left out
# [1] = anionic emulsion (Formulation B)
# [2] = cationic emulsion (Formulation A)
smiles,measurement,setting,value
"Cc1ccc(C(C)C)c(O)c1 [TH, Thymol]","log10 reduction in cfu, A. niger",A. niger,0.8 log10
"COC(=O)c1ccc(O)cc1 [methyl paraben, methylparaben]","log reduction from control growth, C. albicans",Candida albicans; [1],4.31 log10
same,"log reduction from control growth, C. albicans",Candida albicans; [2],4.25 log10
same,"log reduction from control growth, A. niger",Aspergillus niger; [1],2.88 log10
same,"log reduction from control growth, A. niger",Aspergillus niger; [2],4.16 log10
same,"log reduction from control growth, P. aeruginosa",P. aeruginosa; [1],0.11 log10
same,"log reduction from control growth, P. aeruginosa",P. aeruginosa; [2],2.1 log10
same,"log reduction from control growth, S. aureus",S. aureus; [1],0.12 log10
same,"log reduction from control growth, S. aureus",S. aureus; [2],1.9 log10
